# “Also recorded” adds a separate entry of the source. Counter-ions that a name gives are not always drawn. Like-named read-outs stand apart in the source and are kept apart here.
# What was measured:
# [1] = in water; cited from earlier work
# [2] = test system: Pseudomonas aeruginosa, ATCC 27853; assay: Zone of inhibition, antimicrobials in AOT and Cavilon, TSA plates; assay type: cell-based; settings: for ZOI 24 h / ZOI 48 h / ZOI 72 h: agent with AOT in Cavilon polymer, HMDS/ISO, 0.1 mL per cylinder, Neosporin 100 μL; for ZOI behaviour in words: with AOT in Cavilon polymer, over three days
# Description: (§1) All microbiological testing was done by INCELL Corporation, San Antonio, Tex. All zones of inhibition data were measured in mm.
# (§2) The zones of inhibition testing for methicillin-resistant Staphylococcus aureus and Pseudomonas aeruginosa were performed as described below. The bacteria were purchased from ATCC and expanded in Tryptic soy broth overnight. Each of the bacteria cultures was then spread onto Tryptic soy agar (TSA) plates. Sterile cloning cylinders containing the biologically-active agent in a volatile, hydrophobic solvent (0.1 mL per cylinder) were placed on the TSA plates and allowed to air dry for 1 h at room temperature. Neosporin was used as a positive control. The TSA plates were observed and photographed after 24 h, 48 h, and 72 h. Images were used to measure zone of inhibition or areas of clearing surrounding the delivered material.
# (§3) The polymer substrate chosen for the sustained release studies of biologically-active antimicrobial over time was Cavilon. The Cavilon solution is composed of a proprietary acrylate polymer and a smaller amount of polyphenylmethylsiloxane in HMDS and ISO. This was used as a negative control for all zone of inhibition studies (Tables 8-10).
# [3] = test system: methicillin-resistant Staphylococcus aureus, ATCC 700787; assay: as above; assay type: cell-based
# Description: as §1, §2, §3
# [4] = test system: Candida albicans, ATCC 10231; assay: as above; assay type: cell-based; settings: for ZOI 24 h / ZOI 48 h / ZOI 72 h: agent with AOT in Cavilon polymer, HMDS/ISO, 0.1 mL per cylinder, Roccal 1 %
# Description: as §1
# The zones of inhibition testing was also performed with Candida albicans, purchased from ATCC and expanded in Tryptic soy broth overnight. This fungi culture was diluted to 0.1 OD 600 units and spread onto TSA plates. Sterile cloning cylinders were placed on the TSA plates, charged with the biologically-active agent in a volatile, hydrophobic solvent (0.1 mL per cylinder) and allowed to air dry for 1 h at room temperature. A 1% Roccal solution was used as a positive control. The TSA plates were observed and photographed after 24 h, 48 h, and 72 h. Images were used to measure zone of inhibition or areas of clearing surrounding the delivered material.
# as §3
# [5] = test system: L929 mouse fibroblast cell; assay: Cytotoxicity testing, agar overlay with neutral red; settings: for Zone Size / Grade (biological reactivity): 0.05 wt % AOT in Cavilon; for Zone Size: applied to agar surface; for Grade (biological reactivity): scale Grade 0 to Grade 4
# Description: Also of consideration for application to animal and human skin is the potential of toxicity to mammalian cells for reverse emulsion surfactants such as AOT. […] […] Cavilon solution without AOT was used as a negative control.
# The biological reactivity of L929 mouse fibroblast cell in response to the AOT Cavilon solution was determined. The monolayer of fibroblasts was cultured in an agar plate, and the cell viability was evaluated using a vital dye (neutral red). The AOT Cavilon solution was applied directly to the surface of the agar. Positive (Buna-N-Rubber) and negative (Negative Control Plastic, Cavilon solution) control articles were prepared to verify the proper functioning of the test system. The cultures were incubated at 37±1° C., in a humidified atmosphere containing 5±1% carbon dioxide. Zone of inhibition was measured, and biological reactivity (cellular degeneration and malformation) was rated on a scale from Grade 0 (No reactivity) to Grade 4 (Severe reactivity) at 24 and 48 hours. The experiment was run in triplicate.
# albino rabbits = assay: Animal skin-irritation study, Draize scoring; assay type: in vivo, rabbit; settings: Cavilon solution containing 0.5 wt % AOT
# Description: Another concern with the use of a reverse emulsion surfactant for its application to mammalian skin is its potential to cause skin irritation. It has been reported that in water solution AOT can be irritating to skin (M. Changez and M. Varshney, Drug Development and Industrial Pharmacy, 26(5), 507-512 (2000)). To test if AOT is skin-irritating when used in a volatile, hydrophobic solvent with the presence of polymer, an animal skin-irritation study was conducted by Toxikon Corporation, Cavilon solution containing 0.5 wt % AOT was examined, and Cavilon solution was used as a negative control.
# Three albino rabbits were used for the skin irritation study. The application sites were prepared by clipping the skin of the trunk free of hair within 24 h before application of the test and control substances. The animals were treated by applying an AOT-containing Cavilon solution and the Cavilon negative control (0.5 mL) directly onto skin over a skin area of approximate 6 cm^2. The test solution was applied to the skin on the left side of the spine and the control solution was applied to the skin on the right side of the spine. The AOT solution and the negative control were each applied sequentially to three sites, and observed at 6, 24, 48, and 72 h for signs of erythema and edema. Observations were scored according to the Draize Scale for Scoring. […]
# [6] = test system: Gram positive bacteria such as Staphylococcus aureus; settings: reported, G. N. Kern; cited from earlier work
# [7] = test system: Gram negative bacteria such as Pseudomonas aeruginosa; settings: reported, G. N. Kern; cited from earlier work
# Candida albicans = settings: reported, G. N. Kern; cited from earlier work
# [8] = test system: mammalian cells such as fibroblasts, kidney cells, and cancer cells; settings: in water solution; cited from earlier work
# [9] = in water solution; cited from earlier work
# [10] = Solubility in non-polar hydrophobic solvents ISO and HMDS; assay type: physicochemical; settings: without reverse emulsion surfactant
# From the text: For all formulations in the following Examples, each biologically-active agent was inherently insoluble in the non-polar, hydrophobic solvents tested, namely, isooctane (ISO) and hexamethyldisiloxane (HMDS). Solubility occurred in the presence of a reverse emulsion surfactant, with or without the presence of added water, to give optically clear, homogeneous solutions. Since the concentrations of the biologically-active agents (Active) were considerably less than that of the solvent used, the data in the Tables pertaining to all ingredients were rounded-off to the next highest number.
# [11] = 24 h, agent with AOT in Cavilon polymer, HMDS/ISO, 0.1 mL per cylinder, Neosporin 100 μL
# [12] = 48 h, agent with AOT in Cavilon polymer, HMDS/ISO, 0.1 mL per cylinder, Neosporin 100 μL
# [13] = 72 h, agent with AOT in Cavilon polymer, HMDS/ISO, 0.1 mL per cylinder, Neosporin 100 μL
# [14] = with AOT in Cavilon polymer, over three days
structure (smiles),measurement,setting,value
"CCCCC(CC)CNC(=N)NC(=N)NCCCCCCNC(=N)NC(=N)NCC(CC)CCCC (stereo not shown) [ALEX, 1,1′-hexamethylenebis[5-(2-ethylhexyl)biguanide]dihydrochloride]",water solubility,[1],0.1%
"CCCCC(CC)COC(=O)CC(C(=O)OCC(CC)CCCC)S(=O)(=O)[O-].[Na+] (stereo not shown) [AOT, sodium bis(2-ethylhexyl)sulfosuccinate]",ZOI 24 h,[2],8.18 mm
same,ZOI 48 h,[2],8.22 mm
same,ZOI 72 h,[2],11.2 mm
same,ZOI behaviour in words,[2],considerably more effective against Pseudomonas aeruginosa than Neosporin; also recorded: highly effective
same,ZOI 24 h,[3],5.34 mm
same,ZOI 48 h,[3],6.3 mm
same,ZOI 72 h,[3],5.32 mm
same,ZOI behaviour in words,[3],active
same,ZOI 24 h,[4],12.7 mm
same,ZOI 48 h,[4],12.4 mm
same,ZOI 72 h,[4],13.3 mm
same,Zone Size,[5]; 24 hours,0 cm
same,Grade (biological reactivity),[5]; 24 hours,0
same,Zone Size,[5]; 48 hours,0 cm
same,Grade (biological reactivity),[5]; 48 hours,0
same,"toxicity to mammalian cells, in words","[5]; AOT Cavilon solution, 0.5 wt % AOT",not toxic
same,signs of erythema or edema,"albino rabbits; 0.5 mL on skin, observed at 6, 24, 48, and 72 h",None of the AOT solution sites presented any signs of erythema or edema
same,skin irritation classification,albino rabbits; Draize Scale,non-irritant
same,"antibacterial activity, in words",[6],active
same,"antibacterial activity, in words",[7],inactive
same,"antifungal activity, in words",Candida albicans,effective
same,cytotoxic concentration,[8],0.002 wt %
same,"skin irritation, in words",[9],irritating
"O=[N+]([O-])[O-].[Ag+] [AgNO3, Silver Nitrate]",ZOI 24 h,[3]; [11],8.16 mm
same,ZOI 48 h,[3]; [12],9 mm
same,ZOI 72 h,[3]; [13],8.18 mm
same,ZOI behaviour in words,[3]; [14],highly effective
"N=C(NCCCCCCNC(=N)NC(=N)Nc1ccc(Cl)cc1)NC(=N)Nc1ccc(Cl)cc1.O=C(O)[C@H](O)[C@@H](O)[C@H](O)[C@H](O)CO.O=C(O)[C@H](O)[C@@H](O)[C@H](O)[C@H](O)CO [CHG, Chlorhexidine Digluconate]",ZOI 24 h,[2],2.77 mm
same,ZOI 48 h,[2],0 mm
same,ZOI 72 h,[2],0 mm
same,ZOI behaviour in words,[2],less effective
same,ZOI 24 h,[3]; [11],11.53 mm
same,ZOI 48 h,[3]; [12],11.03 mm
same,ZOI 72 h,[3]; [13],11.67 mm
same,ZOI behaviour in words,[3]; [14],exceptional results
same,water solubility,[1],20%
"Clc1ccc(COC(Cn2ccnc2)c2ccc(Cl)cc2Cl)c(Cl)c1 (stereo not shown) [MICON, Miconazole Nitrate]",ZOI 24 h,[4],16.5 mm
same,ZOI 48 h,[4],14.9 mm
same,ZOI 72 h,[4],15 mm
same,ZOI behaviour in words,[4]; [14],superior to that of AOT by itself and PHMB with AOT
"NC[C@@H]1O[C@H](O[C@@H]2[C@@H](CO)OC(O[C@@H]3[C@@H](O)[C@H](N)C[C@H](N)[C@H]3OC3O[C@H](CN)[C@@H](O)[C@H](O)[C@H]3N)[C@@H]2O)[C@H](N)[C@@H](O)[C@@H]1O (stereo partly shown) [NEO, Neomycin Trisulfate]",ZOI 24 h,[2],7.43 mm
same,ZOI 48 h,[2],6.41 mm
same,ZOI 72 h,[2],7.61 mm
same,ZOI 24 h,[3]; [11],8.95 mm
same,ZOI 48 h,[3]; [12],8.94 mm
same,ZOI 72 h,[3]; [13],9.71 mm
same,ZOI behaviour in words,[3]; [14],highly effective
"CCCCCCCCCCCC(=O)[O-].[Na+] [SL, sodium dodecanoate]",solubility in isooctane (ISO) and hexamethyldisiloxane (HMDS),[10],insoluble

# Source: US8852648B2, “Delivery of biologically-active agents using volatile, hydrophobic solvents” (Rochal Industries, LLP, priority 2012, dated 2014)
